Structures can show the parent of a compound that is named as a salt. Where two headings read alike, the source gives them in different places.
Experiments:
Test in all cases: AK assay 384-well format, Prestwick library screening
K. pneumoniae = format: cell-based, Klebsiella pneumoniae; conditions: 50 μM final drug concentration; for fold induction at 50 µM: Klebsiella pneumoniae, 3 h
E. cloacae = format: cell-based, Enterobacter cloacae; conditions: 50 μM final drug concentration; for fold induction at 50 µM: Enterobacter cloacae, 3 h
E. faecium = format: cell-based, Enterococcus faecium; conditions: 50 μM final drug concentration; for fold induction at 50 µM: Enterococcus faecium, 3 h
[1] = test system: A. baumannii strain 98-37-09; format: cell-based, Acinetobacter baumannii; conditions: 50 μM final drug concentration; for fold induction at 50 µM: Acinetobacter baumannii, 983709, 3 h
P. aeruginosa = format: cell-based, Pseudomonas aeruginosa; conditions: 50 μM final drug concentration; for fold induction at 50 µM: Pseudomonas aeruginosa, 3 h
E. coli = format: cell-based, Escherichia coli; conditions: 50 μM final drug concentration; for fold induction at 50 µM: Escherichia coli, 3 h
[2] = test system: S. aureus strain USA300-0114; format: cell-based, Staphylococcus aureus; conditions: 50 μM final drug concentration; for fold induction at 50 µM: Staphylococcus aureus, USA300, 3 h
[3] = planktonic, cutoff for positive 3-fold increase, read-out: AK-based Prestwick Library Screening Results, K. pneumoniae (fold increase in extracellular AK activity)
[4] = planktonic, cutoff for positive 3-fold increase, read-out: AK-based Prestwick Library Screening Results, E. cloacae (fold increase in extracellular AK activity)
[5] = planktonic, cutoff for positive 3-fold increase, read-out: AK-based Prestwick Library Screening Results, E. faecium (fold increase in extracellular AK activity)
[6] = planktonic, cutoff for positive 3-fold increase, read-out: AK-based Prestwick Library Screening Results, A. baumannii (fold increase in extracellular AK activity)
[7] = planktonic, cutoff for positive 3-fold increase, read-out: AK-based Prestwick Library Screening Results, P. aeruginosa (fold increase in extracellular AK activity)
[8] = planktonic, cutoff for positive 3-fold increase, read-out: AK-based Prestwick Library Screening Results, E. coli (fold increase in extracellular AK activity)
[9] = planktonic, cutoff for positive 3-fold increase, read-out: AK-based Prestwick Library Screening Results, S. aureus (fold increase in extracellular AK activity)
[10] = planktonic K. pneumoniae, positive cutoff 3-fold increase, read-out: AK-based Prestwick library screening result, K. pneumoniae (fold increase in extracellular AK activity)
[11] = planktonic E. cloacae, positive cutoff 3-fold increase, read-out: AK-based Prestwick library screening result, E. cloacae (fold increase in extracellular AK activity)
[12] = planktonic E. faecium, positive cutoff 3-fold increase, read-out: AK-based Prestwick library screening result, E. faecium (fold increase in extracellular AK activity)
[13] = planktonic A. baumannii, positive cutoff 3-fold increase, read-out: AK-based Prestwick library screening result, A. baumannii (fold increase in extracellular AK activity)
[14] = planktonic P. aeruginosa, positive cutoff 3-fold increase, read-out: AK-based Prestwick library screening result, P. aeruginosa (fold increase in extracellular AK activity)
[15] = planktonic E. coli, positive cutoff 3-fold increase, read-out: AK-based Prestwick library screening result, E. coli (fold increase in extracellular AK activity)
[16] = planktonic S. aureus, positive cutoff 3-fold increase, read-out: AK-based Prestwick library screening result, S. aureus (fold increase in extracellular AK activity)
[17] = planktonic K. pneumoniae, cutoff for positive-scoring molecules 3-fold increase, read-out: AK-based Prestwick Library Screening Results, K. pneumoniae (increase in extracellular AK activity)
[18] = planktonic E. cloacae, cutoff for positive-scoring molecules 3-fold increase, read-out: AK-based Prestwick Library Screening Results, E. cloacae (increase in extracellular AK activity)
[19] = planktonic E. faecium, cutoff for positive-scoring molecules 3-fold increase, read-out: AK-based Prestwick Library Screening Results, E. faecium (increase in extracellular AK activity)
[20] = planktonic A. baumannii, cutoff for positive-scoring molecules 3-fold increase, read-out: AK-based Prestwick Library Screening Results, A. baumannii (increase in extracellular AK activity)
[21] = planktonic P. aeruginosa, cutoff for positive-scoring molecules 3-fold increase, read-out: AK-based Prestwick Library Screening Results, P. aeruginosa (increase in extracellular AK activity)
[22] = planktonic E. coli, cutoff for positive-scoring molecules 3-fold increase, read-out: AK-based Prestwick Library Screening Results, E. coli (increase in extracellular AK activity)
[23] = planktonic S. aureus, cutoff for positive-scoring molecules 3-fold increase, read-out: AK-based Prestwick Library Screening Results, S. aureus (increase in extracellular AK activity)

`CC(C)NCC(O)COc1ccc(CCOCC2CC2)cc1` (stereo not shown) [Betaxolol hydrochloride] was tested, and the fold induction at 50 µM (K. pneumoniae; [3]) was 1, the fold induction at 50 µM (E. cloacae; [4]) was 1.6 and the fold induction at 50 µM (E. faecium; [5]) was 0.9. It also gave a fold induction at 50 µM [1, 6] of 1.4, a fold induction at 50 µM (P. aeruginosa; [7]) of 1.1 and a fold induction at 50 µM (E. coli; [8]) of 1.2. It also gave a fold induction at 50 µM [2, 9] of 0.9.
With `NCCc1cc[nH]n1` [Betazole hydrochloride] the fold induction at 50 µM (K. pneumoniae; 384-well format, cutoff for positive-scoring molecules 3-fold increase, read-out: AK-based Prestwick Library Screening Results, K. pneumoniae (increase in extracellular AK activity)) was 0.9, the fold induction at 50 µM (E. cloacae; 384-well format, cutoff for positive-scoring molecules 3-fold increase, read-out: AK-based Prestwick Library Screening Results, E. cloacae (increase in extracellular AK activity)) was 1.4 and the fold induction at 50 µM (E. faecium; 384-well format, cutoff for positive-scoring molecules 3-fold increase, read-out: AK-based Prestwick Library Screening Results, E. faecium (increase in extracellular AK activity)) was 1. The fold induction at 50 µM ([1]; 384-well format, cutoff for positive-scoring molecules 3-fold increase, read-out: AK-based Prestwick Library Screening Results, A. baumannii (increase in extracellular AK activity)) was 1.2, the fold induction at 50 µM (P. aeruginosa; 384-well format, cutoff for positive-scoring molecules 3-fold increase, read-out: AK-based Prestwick Library Screening Results, P. aeruginosa (increase in extracellular AK activity)) was 1 and the fold induction at 50 µM (E. coli; 384-well format, cutoff for positive-scoring molecules 3-fold increase, read-out: AK-based Prestwick Library Screening Results, E. coli (increase in extracellular AK activity)) was 1.3. The fold induction at 50 µM ([2]; 384-well format, cutoff for positive-scoring molecules 3-fold increase, read-out: AK-based Prestwick Library Screening Results, S. aureus (increase in extracellular AK activity)) was 1.2.
`CC(C[N+](C)(C)C)OC(N)=O` (stereo not shown) [Bethanechol chloride] gave a fold induction at 50 µM (K. pneumoniae; [10]) of 0.7, a fold induction at 50 µM (E. cloacae; [11]) of 0.9 and a fold induction at 50 µM (E. faecium; [12]) of 0.9. The fold induction at 50 µM [1, 13] was 0.8, the fold induction at 50 µM (P. aeruginosa; [14]) was 0.7 and the fold induction at 50 µM (E. coli; [15]) was 1. The fold induction at 50 µM [2, 16] was 0.7.
`C[N+]1(C)C[C@H](O)C[C@H]1C(=O)[O-]` [Betonicine] showed a fold induction at 50 µM (K. pneumoniae; planktonic, cutoff for positive-scoring molecules 3-fold increase, read-out: AK-based Prestwick Library Screening Results, K. pneumoniae (fold increase in extracellular AK activity)) of 0.6, a fold induction at 50 µM (E. cloacae; planktonic, cutoff for positive-scoring molecules 3-fold increase, read-out: AK-based Prestwick Library Screening Results, E. cloacae (fold increase in extracellular AK activity)) of 0.4 and a fold induction at 50 µM (E. faecium; planktonic, cutoff for positive-scoring molecules 3-fold increase, read-out: AK-based Prestwick Library Screening Results, E. faecium (fold increase in extracellular AK activity)) of 0.9. For the same molecule, the fold induction at 50 µM ([1]; planktonic, cutoff for positive-scoring molecules 3-fold increase, read-out: AK-based Prestwick Library Screening Results, A. baumannii (fold increase in extracellular AK activity)) was 0.4, the fold induction at 50 µM (P. aeruginosa; planktonic, cutoff for positive-scoring molecules 3-fold increase, read-out: AK-based Prestwick Library Screening Results, P. aeruginosa (fold increase in extracellular AK activity)) was 0.4 and the fold induction at 50 µM (E. coli; planktonic, cutoff for positive-scoring molecules 3-fold increase, read-out: AK-based Prestwick Library Screening Results, E. coli (fold increase in extracellular AK activity)) was 0.4. The fold induction at 50 µM ([2]; planktonic, cutoff for positive-scoring molecules 3-fold increase, read-out: AK-based Prestwick Library Screening Results, S. aureus (fold increase in extracellular AK activity)) was 0.4.
Work on `C=C(C)[C@@H]1CC[C@]2(CO)CC[C@]3(C)[C@H](CC[C@@H]4[C@@]5(C)CC[C@H](O)C(C)(C)[C@@H]5CC[C@]43C)[C@@H]12` [Betulin] yielded a fold induction at 50 µM (K. pneumoniae; [10]) of 0.7, a fold induction at 50 µM (E. cloacae; [11]) of 1.3 and a fold induction at 50 µM (E. faecium; [12]) of 0.9. For the same molecule, the fold induction at 50 µM [1, 13] was 0.8, the fold induction at 50 µM (P. aeruginosa; [14]) was 0.7 and the fold induction at 50 µM (E. coli; [15]) was 0.8. The fold induction at 50 µM [2, 16] was 0.3.
For `C=C(C)[C@@H]1CC[C@]2(C(=O)O)CC[C@]3(C)[C@H](CC[C@@H]4[C@@]5(C)CC[C@H](O)C(C)(C)[C@@H]5CC[C@]43C)[C@@H]12` [Betulinic acid], the fold induction at 50 µM (K. pneumoniae; [17]) was 0.5, the fold induction at 50 µM (E. cloacae; [18]) was 0.7 and the fold induction at 50 µM (E. faecium; [19]) was 0.9. For the same molecule, the fold induction at 50 µM [1, 20] was 0.6, the fold induction at 50 µM (P. aeruginosa; [21]) was 0.6 and the fold induction at 50 µM (E. coli; [22]) was 0.6. The fold induction at 50 µM [2, 23] was 0.1.
`CC(C)(Oc1ccc(CCNC(=O)c2ccc(Cl)cc2)cc1)C(=O)O` [Bezafibrate] showed a fold induction at 50 µM (K. pneumoniae; [3]) of 0.7, a fold induction at 50 µM (E. cloacae; [4]) of 1.5 and a fold induction at 50 µM (E. faecium; [5]) of 0.8. The fold induction at 50 µM [1, 6] was 0.8, the fold induction at 50 µM (P. aeruginosa; [7]) was 1 and the fold induction at 50 µM (E. coli; [8]) was 0.9. For the same molecule, the fold induction at 50 µM [2, 9] was 1.1.
With `CN1CCc2cc3c(cc2[C@H]1[C@@H]1OC(=O)c2c1ccc1c2OCO1)OCO3` [Bicuculline (+)] the “AK-based Prestwick Library Screening Results, K. pneumoniae (increase in extracellular AK activity)” value (K. pneumoniae; planktonic K. pneumoniae, […]) was 0.8, the “AK-based Prestwick Library Screening Results, E. cloacae (increase in extracellular AK activity)” value (E. cloacae; planktonic E. cloacae, […]) was 0.9 and the “AK-based Prestwick Library Screening Results, E. faecium (increase in extracellular AK activity)” value (E. faecium; planktonic E. faecium, […]) was 0.9. For the same molecule, the “AK-based Prestwick Library Screening Results, A. baumannii (increase in extracellular AK activity)” value ([1]; planktonic A. baumannii, […]) was 0.8, the “AK-based Prestwick Library Screening Results, P. aeruginosa (increase in extracellular AK activity)” value (P. aeruginosa; planktonic P. aeruginosa, […]) was 0.9 and the “AK-based Prestwick Library Screening Results, E. coli (increase in extracellular AK activity)” value (E. coli; planktonic E. coli, […]) was 0.8. For the same molecule, the “AK-based Prestwick Library Screening Results, S. aureus (increase in extracellular AK activity)” value ([2]; planktonic S. aureus, […]) was 0.6.
`OC(CCN1CCCCC1)(c1ccccc1)C1CC2C=CC1C2` (stereo not shown) [Biperiden hydrochloride] was tested, and the fold induction at 50 µM (K. pneumoniae; [17]) was 0.8, the fold induction at 50 µM (E. cloacae; [18]) was 0.9 and the fold induction at 50 µM (E. faecium; [19]) was 0.9. For the same molecule, the fold induction at 50 µM [1, 20] was 0.8, the fold induction at 50 µM (P. aeruginosa; [21]) was 0.8 and the fold induction at 50 µM (E. coli; [22]) was 1. The fold induction at 50 µM [2, 23] was 0.6.
Work on `CC(=O)Oc1ccc(C(c2ccc(OC(C)=O)cc2)c2ccccn2)cc1` [Bisacodyl] yielded a fold induction at 50 µM (K. pneumoniae; [17]) of 0.6, a fold induction at 50 µM (E. cloacae; [18]) of 0.9 and a fold induction at 50 µM (E. faecium; [19]) of 1. The fold induction at 50 µM [1, 20] was 0.8, the fold induction at 50 µM (P. aeruginosa; [21]) was 0.6 and the fold induction at 50 µM (E. coli; [22]) was 0.6. The fold induction at 50 µM [2, 23] was 0.5.

Reference: patent publication US10004701B2, “Methods and compositions for treating infection” (UNIVERSITY OF ROCHESTER, priority 2012, dated 2018)
